In patent US5041426A, “Immune system enhancing 3-β-d-ribofuranosylthiazolo[4,5-d]pyridimine nucleosides and nucleotides” (priority 1988, dated 1991):
Several values for one entry are separate records, joined by “and”; a condition that tells them apart may be missing. Identical values can stand only once.

Columns and labels:
Banzi Virus = type: in vivo, mouse; settings: compound 7 100 mg/kg at -24 h, saline days 0-6; of mice that died
Friend Leukemia virus = Friend Leukemia virus induced spleenomegaly; type: in vivo; settings: further test
From the text: As is evident from the above tables antiviral activity against a variety of viruses is seen.

YAC-1 tumor target cells = test: In vivo potentiation of natural killer cell activity in CBA/CaJ mice (spleen cells); settings: for % Natural Killer Cytotoxicity: 1.68 mg/mouse i.p.
Description: After 1, 2, 3 and 4 days of treatment the spleens of the mice were harvested and the cytotoxic activity of the spleen cells was determined against YAC-1 tumor target cells in the above referred to ^51 Cr release assay as identified in EXAMPLE 32.
(1.68 mg/mouse) by intraperitoneal route.
Each value represents mean ±SD cytotoxic activity of three mice

K562 tumor cells = test: In vitro augmentation of human natural killer cell activity (PBMNC, 51Cr release); type: cell-based; parameters: % Increase in Induced Natural Killer Cell Activity: concentration or dose not given beside the values
Description: The natural killer cell activity in human cells was also measured. In conducting these tests peripheral blood mononuculear cells (PBMNC) were isolated on Ficoll-Hypaque gradient, washed three times in Hanks and re-suspended in RPMI-1640 containing 10% human AB serum as described in Rosenberg, S. A.: Journal American Medical Association, 256:3117, 1986 and the above referred to reference to Djeu, et al. Peripheral blood mononuclear cells (PBMNC) from eleven different donors were treated with compound 7 as described in Djeu, et al. as well as Sharma, B., Odom, L. F.: Cancer Immunol. Immunother. 7.93, 1979, and Sharma, B., Odom, L. F.: Cancer Research 44:3258, 1984.
The PBMNC cells were incubated with compound 7 at 37° C. for 20 to 68 hours in a 5% CO2 humid atmosphere and after incubation the cytotoxicity was determined against K562 tumor cells.
^a Peripheral blood mononuclear cells were treated with 0.05 - 0.4 mM
concentration of compound 7 in RPM11640 containing 10% human AB serum for
20 to 68 hours. After the treatment, effector cells were tested against
K562 target cells in 4 hour ^51 Cr release assay as described in
Sharma et al. above. The data shown here represent the maximum response.
K562 target cells in 4 hour ^51 Cr release assay as previously
described above in Sharma et al. The data represent the maximum response.
Other Nucleosides and Nucleotides of the invention were tested for their activity in human natural killer cells […] as per example 33 above.

[1] = tested on: Mastocytoma (P815) tumor cells; test: In vivo potentiation of cytotoxic lymphocytes activity against mastocytoma tumor cells; parameters: species or system mouse; settings: for % Cytotoxicity: DBA/2 mice, compound 7 2 mg/mouse, interleukin-2 50 U per mouse
Description: ^a Ten mice in each group were inoculated with 2 × 10^6
tumor cells. After 5 hours, saline or nucleoside compound 7 solution (2
mg/mouse) was administered to each mouse. On days 3,5,7 or 9, spleen cell
were isolated and their cytotoxicity was determined against P815 tumor
cells as described in Gonzales and Sharma.
Compound 7 was tested to determine whether or not it can increase cytotoxic lymphocytes response against mastocytoma tumor cells. In the test mice were immunized with mastocytoma cells (P815) and after 5 hours compound 7 as a solution was given in a dose of […] per mouse.

[2] = tested on: Encephalomyocarditis virus; test: Single versus multiple treatments on Encephalomyocarditis virus infection in mice; type: in vivo, mouse; settings: for Mean Survival Time: of mice that died
[3] = tested on: Reticulum-cell Sarcoma M5076; test: Mean life span of mice with metastatic reticulum-cell sarcoma; type: in vivo, mouse
Description: Effect of drug treatment on the mean life span of host animals implanted with metastatic reticulum-cell sarcoma M5076 was measured using the same test protocol as per example 54. The host animals were drug dosed for 20 days as per example 54, however, as opposed to example 54 they were monitored for survival.
^a Fragments of reticulumcell sarcoma M5076 (≈14 mg) were
implanted sc in the left flank of BDF1 female mice and ip bolus
injections of drug were initiated 24 hrs later. The drug was delivered on
the basis of 0.01 ml/g mouse weight. Control mice received a 0.09%
solution of NaCl delivered on the same basis. Six mice were used per
treatment group. Treatment give qd for days 1-20 and animals monitored
after treatment for survival.

Nc1nc2c(sc(=O)n2[C@@H]2O[C@H](CO)[C@@H](O)[C@H]2O)c(=O)[nH]1 [Compound 7, 5-Amino-3-β-D-ribofuranosylthiazolo[4,5-d]pyrimidine-2,7(6H)-dione]
Mean Survival Time (Banzi Virus): 9.3 ± 1.0 days
antiviral activity against Friend Leukemia virus induced spleenomegaly (Friend Leukemia virus): little or no antiviral activity
% Natural Killer Cytoxicity (YAC-1 tumor target cells; 0.84 mg i.p., E:T 50:1): 38 ± 7%
% Natural Killer Cytoxicity (YAC-1 tumor target cells; 0.84 mg i.p., E:T 100:1): 48 ± 9%
% Natural Killer Cytoxicity (YAC-1 tumor target cells; 0.84 mg i.p., E:T 150:1): 56 ± 8.5%
increase in natural killer cell activity (YAC-1 tumor target cells; 0.84 mg to 3.36 mg per mouse): all doses of compound 7 induced a marked increase in natural killer cell activity
% Natural Killer Cytoxicity (YAC-1 tumor target cells; 1.68 mg i.p., E:T 50:1 (Table 4)): 44 ± 8%
% Natural Killer Cytoxicity (YAC-1 tumor target cells; 1.68 mg i.p., E:T 100:1 (Table 4)): 56 ± 12%
% Natural Killer Cytoxicity (YAC-1 tumor target cells; 1.68 mg i.p., E:T 150:1 (Table 4)): 61 ± 14%
% Natural Killer Cytotoxicity (YAC-1 tumor target cells; 1 day after treatment, E:T 50:1): 53 ± 5%
% Natural Killer Cytotoxicity (YAC-1 tumor target cells; 1 day after treatment, E:T 100:1): 64 ± 5%
% Natural Killer Cytotoxicity (YAC-1 tumor target cells; 1 day after treatment, E:T 150:1): 71 ± 9%
% Natural Killer Cytotoxicity (YAC-1 tumor target cells; 2 days after treatment, E:T 50:1): 46 ± 9%
% Natural Killer Cytotoxicity (YAC-1 tumor target cells; 2 days after treatment, E:T 100:1): 64 ± 5%
% Natural Killer Cytotoxicity (YAC-1 tumor target cells; 2 days after treatment, E:T 150:1): 65 ± 7%
% Natural Killer Cytotoxicity (YAC-1 tumor target cells; 3 days after treatment, E:T 50:1): 38 ± 6.6%
% Natural Killer Cytotoxicity (YAC-1 tumor target cells; 3 days after treatment, E:T 100:1): 50 ± 7%
% Natural Killer Cytotoxicity (YAC-1 tumor target cells; 3 days after treatment, E:T 150:1): 63 ± 6%
% Natural Killer Cytotoxicity (YAC-1 tumor target cells; 4 days after treatment, E:T 50:1): 30 ± 0.1%
% Natural Killer Cytotoxicity (YAC-1 tumor target cells; 4 days after treatment, E:T 100:1): 37 ± 1.5%
% Natural Killer Cytotoxicity (YAC-1 tumor target cells; 4 days after treatment, E:T 150:1): 48 ± 3%
% Natural Killer Cytoxicity (YAC-1 tumor target cells; 2.52 mg i.p., E:T 50:1): 48 ± 6.6%
% Natural Killer Cytoxicity (YAC-1 tumor target cells; 2.52 mg i.p., E:T 100:1): 62 ± 7%
% Natural Killer Cytoxicity (YAC-1 tumor target cells; 2.52 mg i.p., E:T 150:1): 70 ± 5%
% Natural Killer Cytoxicity (YAC-1 tumor target cells; 3.36 mg i.p., E:T 50:1): 48 ± 4.6%
% Natural Killer Cytoxicity (YAC-1 tumor target cells; 3.36 mg i.p., E:T 100:1): 67 ± 10%
% Natural Killer Cytoxicity (YAC-1 tumor target cells; 3.36 mg i.p., E:T 150:1): 74 ± 6.4%
Emax (YAC-1 tumor target cells; Mus musculus, YAC-1, 24 h, read-out: maximum response, increase in natural killer cell activity): 382%
increase in natural killer cell activity (YAC-1 tumor target cells; single injection 1.68 mg per mouse, after 4 days): More than a two fold increase
% Natural Killer Cell Cytotoxicity, + Compound 7 (K562 tumor cells; 0.05 - 0.4 mM, 20 to 68 h, maximum response, donors 1 to 11, one line per donor in order): 91% and 29% and 54% and 47% and 16% and 18% and 10% and 22% and 15% and 20% and 32%
tests with an increase in the mediated potentiation (K562 tumor cells; Donor 1, Table 2b): eight of the eight tests
tests with an increase in the mediated potentiation (K562 tumor cells; Donor 2, Table 2b): six of six tests
mean natural killer cell cytotoxicity (K562 tumor cells; PBMNC from eleven donors pretreated with compound 7 (untreated mean 11.7%)): 32.2%
% Natural Killer Cell Cytotoxicity (K562 tumor cells; Table 22, 0.2 mM): 10%
% Increase in Induced Natural Killer Cell Activity (K562 tumor cells; donors 1 to 11, one line per donor in order): 1031% and 548% and 220% and 88% and 123% and 141% and 167% and 150% and 0% and 63% and 8%
potentiation in natural killer cell cytotoxicity (K562 tumor cells; eight of eleven donors): over 100%
% Cytotoxicity ([1]; day 3, 4320 min): 30%
% Cytotoxicity ([1]; day 5, 7200 min): 24%
% Cytotoxicity ([1]; day 7, 10080 min): 32%
% Cytotoxicity ([1]; day 9, 12960 min): 27%
cytotoxicity versus control group ([1]; p<0.05): statistically significant higherly cytotoxicity than the control group
Mean Survival Time ([2]; 200 mg/kg at -24 h, then 50 mg/kg/day day 0-6): 9.5 ± 2.1 days
Mean Survival Time ([2]; 200 mg/kg at -24 h only): 6.0 ± 1.3 days
protection, daily 50 mg/kg versus single 200 mg/kg dose ([2]; daily dose of 50 mg/kg after 200 mg/kg): protected to a greater degree
Increased Life Span ([3]; 37 mg/kg ip qd days 1-20): 7.0 % of Control
Postinoculation Life Span ([3]; 37 mg/kg ip qd days 1-20): 32.33 ± 3.67 days
Increased Life Span ([3]; 62 mg/kg ip qd days 1-20): 19.8 % of Control
Postinoculation Life Span ([3]; 62 mg/kg ip qd days 1-20, p 0.01): 36.33 ± 0.82 days
Increased Life Span ([3]; 104 mg/kg ip qd days 1-20): 20.3 % of Control
Postinoculation Life Span ([3]; 104 mg/kg ip qd days 1-20, p < 0.03): 36.50 ± 4.55 days
